One molecule from patent publication US20190212343A1, “METHODS FOR THE TREATMENT OF DISORDERS RELATED TO PHOSPHORYLATION OF HISTONES” (H. LEE MOFFITT CANCER CENTER AND RESEARCH INSTITUTE, INC., priority 2014, published 2019) can be followed below.

The subject of one experiment is LNCaP cells. The experiment can be described thus: Cell proliferation assay, viable cells counted by trypan blue exclusion. Type of experiment: cell-based, human. Conditions: charcoal stripped media, 36 hrs, read-out: IC50, inhibition of cell growth. As for the experimental part:
(§1) FIGS. 5A and 5B show cell proliferation assay. (FIG. 5A) LNCaP and (FIG. 5B) VCaP cells were grown in charcoal stripped media and treated with 1, 2.5, 5 and 10 uM of inhibitors (36 hrs) and number of viable cells were counted by trypan blue exclusion assay
(§2) Applicant also assessed ability of the new Ack1 inhibitors to suppress proliferation of prostate cancer cell lines. […] Overall, it appears that ACK I is needed for androgen-independent growth of prostate cancer cells.

Another experiment concerns VCaP cells. The experiment is described as above. Type of experiment: cell-based, human. Conditions: androgen-independent VCaP cells, charcoal stripped media, 36 hrs; read-out: IC50, inhibition of cell growth. As to the method:
as §1, §2

The subject of experiment [1] is histone H3 Tyr99-phosphorylation (ACK1). The experiment can be described thus: Histone H3 Tyr99-phosphorylation in JAR cells (immunoblotting). Type of experiment: cell-based, human. Conditions: EGF+AIM-100. As for the experimental part: FIGS. 5A-5D show ACK1 deposits pY99-H3 epigenetic marks in SLC6A4 promoter and intron 2. (FIG. 5A) Lysates prepared from JAR cells treated with EGF ligand were subjected to immunoblotting with indicated antibodies. (FIG. 5B) Lysates prepared from JAR cells treated with EGF or AIM-100 were subjected to immunoblotting with indicated antibodies. (FIG. 5C) Total RNA was prepared from JAR cells untreated or treated with EGF ligand followed by quantitative RT-PCR using SLC6A4 and actin primers. The ratio of SLC6A4 to actin is shown. (FIG. 5D) JAR cells were treated with EGF ligand and ChIP was performed using pY99-H3 antibodies followed by quantitative PCR using primers corresponding to intron 2 (VNTR).
JAR cells are human placenta-derived epithelial cells that express SLC6A4 or SERT. Applicant first assessed presence of ACK1 signaling in JAR cells by treating these cells with EGF ligand. […] ACK1 activation was also reflected in histone H3 Tyr99-phosphorylation (FIG. SA, 2nd panel).
To validate critical role of ACK1 in histone H3 Tyr99-phosphoryation, JAR cells were treated with EGF or EGF+AIM-100.
Background: In western blotting, separated proteins are transferred to a membrane and probed.

The test system of the next experiment is SLC6A4 mRNA. The experiment can be described thus: SLC6A4 mRNA expression (real time RT-PCR). Type of experiment: cell-based, human. Conditions: inhibition of ACK1 by small molecule inhibitor. As for the experimental part:
The ratio of SLC6A4 to actin is shown. (FIG. 5D) JAR cells were treated with EGF ligand and ChIP was performed using pY99-H3 antibodies followed by quantitative PCR using primers corresponding to intron 2 (VNTR). […]
Applicant also identified for the first time that human and mouse serotonin transporter (SLC6A4 or SERT or 5-HTT) gene expression is regulated by ACK1. A novel mechanism was identified that is operational in SLC6A4 gene regulation. ACK1 deposits pY99-H3 epigenetic marks in promoter (5-HTTLPR) and intron 2 (VNTR) of SLC6A4 gene to regulate its transcription. […] Without being bound by theory, applicant believes that expression of Gabra6, Slc6a2, Slc6a4, Slc6a5 and Oxt genes as well as genes shown in Table 2 are also regulated by ACK1/pY99-H3 epigenetic activity/signaling.
A general note: In qPCR the cycle at which signal appears reflects the starting amount.

A further experiment deals with AR protein levels. The experiment is described as follows: AR protein levels in androgen deprived prostate cancer cells (immunoblotting). Type of experiment: cell-based, human. The note with it: androgen deprived LNCaP and VCaP cells, 2.5, 5 and 10 uM. As for the experimental part: (FIG. 6A) Androgen starved LAPC4 cells were treated with DHT (10 nM, 16 Hrs), AIM-100, DZI-067, Enzalutamide or PLX4032 (7 uM, 36 Hr) and AR, pACK1 and Actin levels were determined by immunoblotting (IB). The relative level of AR is shown below. (FIG. 6B) Androgen deprived LNCaP and VCaP cell were untreated or treated with 2.5, 5 and 10 uM of AIM-100 and lysates were immunoblotted. The quantitation of AR expression is shown. (FIG. 6C) Androgen deprived LNCaP and VCaP cell were untreated or treated with 2.5, 5 and 10 uM of DZI-067 and lysates were immunoblotted. The quantitation of AR expression is shown. (FIG. 6D) LNCaP cells were transfected with control and Ack1 siRNAs followed by immunoblotting. (FIG. 6E) LNCaP cells treated with AIM-100 (7 uM, 16 hr) or MG 132 (10 uM, 6 hr) were immunoblotted with AR antibodies. […]
AR has been known to interact with an ubiquitin E3 ligase, RNF6, causing AR ubiquitination, which in turn promoted AR transcriptional activity (Xu, K. et al. (2009) Cancer Cell 15(4):270-282). To determine whether post-translational modification has role to play in suppression of AR levels upon Ack1 kinase inhibition, LNCaP cells were treated with proteosomal inhibitor, MG-132 and AR levels were measured in presence or absence of AIM-100.

The test system of another experiment is AR mRNA. The experiment can be described thus: AR mRNA levels in androgen-deprived prostate cancer cells (qPCR with AR primers). Format: cell-based, human. Conditions: androgen-deprived LAPC4 and LNCaP cells, overnight treatment.
The next experiment deals with T1, ACK1 (Homo sapiens, UniProt Q07912).
T1 construct: made in house; host or cells: insect cells
The experiment can be described thus: In vitro kinase assay with purified ACK1 and H4, immunoblotting with pTyr antibodies. Type of experiment: biochemical. The note with it: purified ACK1 and H4, AIM-100 100 nM. As to the method: FIGS. 9A-9E show ACK1 phosphorylates histone H4 at Tyrosine 88. (FIG. 9A) peptide were spotted followed by immunoblotting with indicated antibodies. (FIG. 9B) Equimolar amounts of purified ACK1 and H4 proteins were incubated in the presence of AIM-100 (100 nM) and reaction subjected to immunoblotting with pTyr antibodies. (FIG. 9C) In vitro kinase assay performed using purified ACK1 and H4, followed by immunoblotting with pY88-H4 antibodies. (FIG. 9D) H4 Y88-phosphorylation in vivo. LNCaP cells were treated with DZI-067, AIM-100 or Enzalutamide (7 uM, 16 hrs). The nuclear lysates were immunoprecipitated with pY88-H4 antibodies followed by immunoblotting with H4. Lower panel is input lysate. (FIG. 9E) LNCaP cells were treated with Crizotinib (1 uM, 16 hrs). The cell lysates were immunoprecipitated with pY88-H4 antibodies followed by immunoblotting with H4 (upper panel). Lower panel is input lysate immunblotted with H4 antibodies.
To assess direct binding of Ack1 to H4, in vitro kinase assay was performed using purified Ack1 and H4 (New England Biolabs). Human Ack1 were expressed in insect cells and purified to homogeneity (unpublished data). Immunoblotting with pY88-H4 and pTyr antibodies confirmed that indeed H4 is directly Tyr-phosphorylated by Ack1 (FIG. 9B).

The subject of experiment [2] is AR and H3K4me3 at intron 2 of AR gene. The experiment can be described thus: ChIP with AR or H3K4me3 antibodies and qPCR at intron 2 of AR gene. Format: cell-based, human. The note with it: LNCaP cells, absence of androgen. As to the method: LNCaP cells treated with AIM-100 and ChIP was performed using AR, H3K4me3 or IgG antibodies followed by qPCR using primers corresponding to intron 2, or control region. *p<0.05, **p<0.05.

The IC50 is the concentration at which inhibition is half-maximal.

T1 sequence (Q07912 whole entry): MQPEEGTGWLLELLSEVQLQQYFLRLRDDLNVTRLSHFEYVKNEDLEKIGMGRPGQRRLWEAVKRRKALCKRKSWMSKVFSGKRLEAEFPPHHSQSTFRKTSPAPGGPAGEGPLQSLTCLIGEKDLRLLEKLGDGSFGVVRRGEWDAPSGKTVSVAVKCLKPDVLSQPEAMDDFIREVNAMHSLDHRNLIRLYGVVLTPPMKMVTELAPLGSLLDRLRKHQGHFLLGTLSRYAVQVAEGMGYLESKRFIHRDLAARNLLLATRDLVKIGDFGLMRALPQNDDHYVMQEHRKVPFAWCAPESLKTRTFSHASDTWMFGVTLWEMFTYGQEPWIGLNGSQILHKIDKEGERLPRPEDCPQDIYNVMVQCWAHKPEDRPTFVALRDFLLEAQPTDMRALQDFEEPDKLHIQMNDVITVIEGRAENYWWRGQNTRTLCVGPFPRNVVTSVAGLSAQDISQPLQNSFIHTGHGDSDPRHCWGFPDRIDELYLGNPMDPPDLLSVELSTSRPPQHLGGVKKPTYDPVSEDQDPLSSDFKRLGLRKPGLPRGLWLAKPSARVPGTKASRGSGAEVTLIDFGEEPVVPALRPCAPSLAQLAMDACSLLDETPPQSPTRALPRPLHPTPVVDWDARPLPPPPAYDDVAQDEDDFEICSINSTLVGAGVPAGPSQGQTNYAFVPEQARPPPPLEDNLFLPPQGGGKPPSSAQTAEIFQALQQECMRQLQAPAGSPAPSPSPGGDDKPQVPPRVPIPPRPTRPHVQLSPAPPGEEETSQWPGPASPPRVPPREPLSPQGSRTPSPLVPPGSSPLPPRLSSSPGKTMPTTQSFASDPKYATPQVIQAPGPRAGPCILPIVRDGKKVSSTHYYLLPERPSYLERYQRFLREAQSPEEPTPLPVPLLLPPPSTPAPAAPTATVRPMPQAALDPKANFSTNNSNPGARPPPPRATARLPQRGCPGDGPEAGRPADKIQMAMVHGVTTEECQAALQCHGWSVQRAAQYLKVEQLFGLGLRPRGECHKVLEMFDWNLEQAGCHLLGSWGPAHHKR

With `c1ccc(-c2oc3ncnc(NC[C@@H]4CCCO4)c3c2-c2ccccc2)cc1` [AIM-100], the half-inhibitory concentration (IC50) with LNCaP cells worked out at 7 µM. In addition, the 50% inhibitory concentration (IC50) in the experiment on VCaP cells turned out to be 4 µM. For the same molecule, the “histone H3 Tyr99-phosphorylation” value in experiment [1] was “almost complete loss of histone phosphorylation”. For the same molecule, in the experiment with SLC6A4 mRNA, the “SLC6A4 mRNA expression” value is “significant loss of SLC6A4 mRNA expression”. Moreover, in the experiment with AR protein levels, the AR protein levels entry is given as “concomitant decrease in AR protein levels”. The “AR mRNA levels” value with AR mRNA is on record as “significantly suppressed”. The “H4 Tyr-phosphorylation by ACK1” value at ACK1 was “H4 Tyr-phosphorylation is abrogated”. Besides, in experiment [2], the “AR enrichment at intron 2 of AR gene” value is given as “abolished” and the “H3K4me3 methyl marks at intron 2 of AR gene” value was “abolished”.
